Source: patent publication US20210047304A1, “Bromodomain Inhibitors” (AbbVie Inc., priority 2016, published 2021)

Biological target: BRD4 (BDI_K57-E168) (Homo sapiens, UniProt O60885)
Assay: TR-FRET bromodomain binding assay, BRD4 BDI

Row | Structure (SMILES) | Ki
1 | Cc1cc(F)cc(C)c1Oc1ccc(C(C)(C)O)cc1-c1cn(C)c(=O)cc1O[C@H]1CC[C@H](N2C(=O)c3ccccc3C2=O)CC1 [Example 43, 2-[trans-4-({5-[2-(4-fluoro-2,6-dimethylphenoxy)-5-(2-hydroxypropan-2-yl)phenyl]-1-methyl-2-oxo-1,2-dihydropyridin-4-yl}oxy)cyclohexyl]-1H-isoindole-1,3(2H)-dione] | > 13000 nM
2 | Cc1cc(F)cc(C)c1Oc1ccc(C(C)(C)O)cc1-c1cn(C)c(=O)cc1O[C@H]1CC[C@H](N2C(=O)CCC2=O)CC1 [Example 44, 1-[trans-4-({5-[2-(4-fluoro-2,6-dimethylphenoxy)-5-(2-hydroxypropan-2-yl)phenyl]-1-methyl-2-oxo-1,2-dihydropyridin-4-yl}oxy)cyclohexyl]pyrrolidine-2,5-dione] | 3380 nM
3 | Cc1cc(F)cc(C)c1Oc1ccc(C(C)(C)O)cc1-c1cn(C)c(=O)cc1O[C@H]1CC[C@H](NC(=O)c2ccccc2C(=O)O)CC1 [Example 45, 2-{[trans-4-({5-[2-(4-fluoro-2,6-dimethylphenoxy)-5-(2-hydroxypropan-2-yl)phenyl]-1-methyl-2-oxo-1,2-dihydropyridin-4-yl}oxy)cyclohexyl]carbamoyl}benzoic acid] | 4170 nM
4 | Cc1cc(F)cc(C)c1Oc1ccc(C(C)(C)O)cc1-c1cn(C)c(=O)cc1O[C@H]1CC[C@H](NS(C)(=O)=O)CC1 [Example 46, N-[trans-4-({5-[2-(4-fluoro-2,6-dimethylphenoxy)-5-(2-hydroxypropan-2-yl)phenyl]-1-methyl-2-oxo-1,2-dihydropyridin-4-yl}oxy)cyclohexyl]methanesulfonamide] | 5450 nM
5 | Cc1cc(F)cc(C)c1Oc1ccc(C(C)(C)O)cc1-c1cn(C)c(=O)cc1O[C@H]1CC[C@H](NC(=O)C(C)(C)CCO)CC1 [Example 47, N-[trans-4-({5-[2-(4-fluoro-2,6-dimethylphenoxy)-5-(2-hydroxypropan-2-yl)phenyl]-1-methyl-2-oxo-1,2-dihydropyridin-4-yl}oxy)cyclohexyl]-4-hydroxy-2,2-dimethylbutanamide] | 4020 nM
6 | Cc1cc(F)cc(C)c1Oc1ccc(C(C)(C)O)cc1-c1cn(C)c(=O)cc1O[C@H]1CC[C@H](NC(=O)C2CC2)CC1 [Example 50, N-[trans-4-({5-[2-(4-fluoro-2,6-dimethylphenoxy)-5-(2-hydroxypropan-2-yl)phenyl]-1-methyl-2-oxo-1,2-dihydropyridin-4-yl}oxy)cyclohexyl]cyclopropanecarboxamide] | 2830 nM
7 | Cc1cc(F)cc(C)c1Oc1ccc(C(C)(C)O)cc1-c1cn(C)c(=O)cc1O[C@H]1CC[C@H](NC(=O)C2(C)CC2)CC1 [Example 51, N-[trans-4-({5-[2-(4-fluoro-2,6-dimethylphenoxy)-5-(2-hydroxypropan-2-yl)phenyl]-1-methyl-2-oxo-1,2-dihydropyridin-4-yl}oxy)cyclohexyl]-1-methylcyclopropane-1-carboxamide] | > 13000 nM
8 | Cc1cc(F)cc(C)c1Oc1ccc(C(C)(C)O)cc1-c1cn(C)c(=O)cc1O[C@H]1CC[C@H](N2CCCS2(=O)=O)CC1 [Example 52, 2-[trans-4-({5-[2-(4-fluoro-2,6-dimethylphenoxy)-5-(2-hydroxypropan-2-yl)phenyl]-1-methyl-2-oxo-1,2-dihydropyridin-4-yl}oxy)cyclohexyl]-1lambda^6,2-thiazolidine-1,1-dione] | 3480 nM
9 | Cc1cc(F)cc(C)c1Oc1ccc(C(C)(C)O)cc1-c1cn(C)c(=O)cc1O[C@H]1CC[C@H](N(C)C(=O)C(C)(C)C)CC1 [Example 59, N-[trans-4-({5-[2-(4-fluoro-2,6-dimethylphenoxy)-5-(2-hydroxypropan-2-yl)phenyl]-1-methyl-2-oxo-1,2-dihydropyridin-4-yl}oxy)cyclohexyl]-N,2,2-trimethylpropanamide] | 6550 nM
10 | Cc1cc(F)cc(C)c1Oc1ncc(C(C)(C)O)cc1-c1cn(C)c(=O)cc1O[C@H]1CC[C@H](N2CCCC2=O)CC1 [Example 60, 2′-(4-fluoro-2,6-dimethylphenoxy)-5′-(2-hydroxypropan-2-yl)-1-methyl-4-{[trans-4-(2-oxopyrrolidin-1-yl)cyclohexyl]oxy}[3,3′-bipyridin]-6(1H)-one] | 4660 nM
11 | Cc1cc(F)cc(C)c1Oc1ccc(C(C)(C)O)cc1-c1cn(C)c(=O)cc1O[C@H]1CC[C@H](C(=O)O)CC1 [Example 61, trans-4-({5-[2-(4-fluoro-2,6-dimethylphenoxy)-5-(2-hydroxypropan-2-yl)phenyl]-1-methyl-2-oxo-1,2-dihydropyridin-4-yl}oxy)cyclohexane-1-carboxylic acid] | 12200 nM
12 | Cc1cc(F)cc(C)c1Oc1ccc(C(C)(C)O)cc1-c1cn(C)c(=O)cc1O[C@H]1CC[C@H](C(=O)N2CCCC2)CC1 [Example 62, 5-[2-(4-fluoro-2,6-dimethylphenoxy)-5-(2-hydroxypropan-2-yl)phenyl]-1-methyl-4-{[trans-4-(pyrrolidine-1-carbonyl)cyclohexyl]oxy}pyridin-2(1H)-one] | 8370 nM
13 | CCNC(=O)[C@H]1CC[C@H](Oc2cc(=O)n(C)cc2-c2cc(C(C)(C)O)ccc2Oc2c(C)cc(F)cc2C)CC1 [Example 63, trans-N-ethyl-4-({5-[2-(4-fluoro-2,6-dimethylphenoxy)-5-(2-hydroxypropan-2-yl)phenyl]-1-methyl-2-oxo-1,2-dihydropyridin-4-yl}oxy)cyclohexane-1-carboxamide] | 5960 nM

Now those with a lower Ki, led by results:

Row | Ki | Structure (SMILES)
14 | 1790 nM | Cc1cc(F)cc(C)c1Oc1ccc(C(C)(C)O)cc1-c1cn(C)c(=O)cc1O[C@H]1CC[C@H](N2CCC(C)(C)C2=O)CC1 [Example 48, 4-{[trans-4-(3,3-dimethyl-2-oxopyrrolidin-1-yl)cyclohexyl]oxy}-5-[2-(4-fluoro-2,6-dimethylphenoxy)-5-(2-hydroxypropan-2-yl)phenyl]-1-methylpyridin-2(1H)-one]
15 | 2530 nM | Cc1cc(F)cc(C)c1Oc1ccc(C(C)(C)O)cc1-c1cn(C)c(=O)cc1O[C@H]1CC[C@H](NC(=O)CCO)CC1 [Example 49, N-[trans-4-({5-[2-(4-fluoro-2,6-dimethylphenoxy)-5-(2-hydroxypropan-2-yl)phenyl]-1-methyl-2-oxo-1,2-dihydropyridin-4-yl}oxy)cyclohexyl]-3-hydroxypropanamide]
16 | 1440 nM | COCC(=O)N[C@H]1CC[C@H](Oc2cc(=O)n(C)cc2-c2cc(C(C)(C)O)ccc2Oc2c(C)cc(F)cc2C)CC1 [Example 53, N-[trans-4-({5-[2-(4-fluoro-2,6-dimethylphenoxy)-5-(2-hydroxypropan-2-yl)phenyl]-1-methyl-2-oxo-1,2-dihydropyridin-4-yl}oxy)cyclohexyl]-2-methoxyacetamide]
17 | 2260 nM | CC(=O)N(CCO)[C@H]1CC[C@H](Oc2cc(=O)n(C)cc2-c2cc(C(C)(C)O)ccc2Oc2c(C)cc(F)cc2C)CC1 [Example 54, N-[trans-4-({5-[2-(4-fluoro-2,6-dimethylphenoxy)-5-(2-hydroxypropan-2-yl)phenyl]-1-methyl-2-oxo-1,2-dihydropyridin-4-yl}oxy)cyclohexyl]-N-(2-hydroxyethyl)acetamide]
18 | 1870 nM | CCOC(=O)CC(=O)N[C@H]1CC[C@H](Oc2cc(=O)n(C)cc2-c2cc(C(C)(C)O)ccc2Oc2c(C)cc(F)cc2C)CC1 [Example 55, ethyl 3-{[trans-4-({5-[2-(4-fluoro-2,6-dimethylphenoxy)-5-(2-hydroxypropan-2-yl)phenyl]-1-methyl-2-oxo-1,2-dihydropyridin-4-yl}oxy)cyclohexyl]amino}-3-oxopropanoate]
19 | 2430 nM | CC(=O)C(=O)N[C@H]1CC[C@H](Oc2cc(=O)n(C)cc2-c2cc(C(C)(C)O)ccc2Oc2c(C)cc(F)cc2C)CC1 [Example 56, N-[trans-4-({5-[2-(4-fluoro-2,6-dimethylphenoxy)-5-(2-hydroxypropan-2-yl)phenyl]-1-methyl-2-oxo-1,2-dihydropyridin-4-yl}oxy)cyclohexyl]-2-oxopropanamide]
20 | 1660 nM | Cc1cc(F)cc(C)c1Oc1ccc(C(C)(C)O)cc1-c1cn(C)c(=O)cc1O[C@H]1CC[C@H](NC(=O)C(C)(C)C)CC1 [Example 57, N-[trans-4-({5-[2-(4-fluoro-2,6-dimethylphenoxy)-5-(2-hydroxypropan-2-yl)phenyl]-1-methyl-2-oxo-1,2-dihydropyridin-4-yl}oxy)cyclohexyl]-2,2-dimethylpropanamide]
21 | 783 nM | Cc1cc(F)cc(C)c1Oc1ccc(C(C)(C)O)cc1-c1cn(C)c(=O)cc1O[C@H]1CC[C@H](N(C)C(=O)C2(C)CC2)CC1 [Example 58, N-[trans-4-({5-[2-(4-fluoro-2,6-dimethylphenoxy)-5-(2-hydroxypropan-2-yl)phenyl]-1-methyl-2-oxo-1,2-dihydropyridin-4-yl}oxy)cyclohexyl]-N,1-dimethylcyclopropane-1-carboxamide]
22 | 1950 nM | COCCN(C(=O)C1(C)CC1)[C@H]1CC[C@H](Oc2cc(=O)n(C)cc2-c2cc(C(C)(C)O)ccc2Oc2c(C)cc(F)cc2C)CC1 [Example 64, N-[trans-4-({5-[2-(4-fluoro-2,6-dimethylphenoxy)-5-(2-hydroxypropan-2-yl)phenyl]-1-methyl-2-oxo-1,2-dihydropyridin-4-yl}oxy)cyclohexyl]-N-(2-methoxyethyl)-1-methylcyclopropane-1-carboxamide]
23 | 1860 nM | COCCCN(C(=O)C1(C)CC1)[C@H]1CC[C@H](Oc2cc(=O)n(C)cc2-c2cc(C(C)(C)O)ccc2Oc2c(C)cc(F)cc2C)CC1 [Example 65, N-[trans-4-({5-[2-(4-fluoro-2,6-dimethylphenoxy)-5-(2-hydroxypropan-2-yl)phenyl]-1-methyl-2-oxo-1,2-dihydropyridin-4-yl}oxy)cyclohexyl]-N-(3-methoxypropyl)-1-methylcyclopropane-1-carboxamide]
24 | 1320 nM | CCOC(=O)CN(C(=O)C1(C)CC1)[C@H]1CC[C@H](Oc2cc(=O)n(C)cc2-c2cc(C(C)(C)O)ccc2Oc2c(C)cc(F)cc2C)CC1 [Example 66, ethyl N-[trans-4-({5-[2-(4-fluoro-2,6-dimethylphenoxy)-5-(2-hydroxypropan-2-yl)phenyl]-1-methyl-2-oxo-1,2-dihydropyridin-4-yl}oxy)cyclohexyl]-N-(1-methylcyclopropane-1-carbonyl)glycinate]
